Source: US6770645B2, “Pharmaceutically active compounds” (Pfizer Inc., priority 2001, dated 2004)
Structures can show the parent of a compound that is named as a salt. Where two headings read alike, the source gives them in different places.

How the values were obtained:
[1] = molecular target: T1, cGMP PDE5 (Homo sapiens, UniProt O76074); test: In vitro cGMP PDE5 inhibitory activity (IC50); type: biochemical
T1 construct: The required PDE enzymes were isolated from a variety of sources, including human corpus cavernosum, human platelets; from tissue; host or cells: human corpus cavernosum tissue or human platelets
Experimental: The compounds of the present invention are potent and selective cGMP PDE5 inhibitors. In vitro PDE inhibitory activities against cyclic guanosine 3′,5′-monophosphate (cGMP) and cyclic adenosine 3′,5′-monophosphate (cAMP) phosphodiesterases were determined by measurement of their IC50 values (the concentration of compound required for 50% inhibition of enzyme activity).
The required PDE enzymes were isolated from a variety of sources, including human corpus cavernosum, human platelets, human cardiac ventricle, human skeletal muscle and human and canine retina, essentially by the method of W. J. Thompson and M. M. Appleman (Biochem., 1971, 10, 311). In particular, the cGMP-specific PDE (PDE5) and the cGMP-inhibited cAMP PDE (PDE3) were obtained from human corpus cavernosum tissue or human platelets; the cGMP-stimulated PDE (PDE2) was obtained from human corpus cavernosum or human platelets; the calcium/calmodulin (Ca/CAM)-dependent PDE (PDE1) from human cardiac ventricle; the cAMP-specific PDE (PDE4) from recombinant clone or human skeletal muscle; and the photoreceptor PDE (PDE6) from canine or human retina. Phosphodiesterases 7-11 were generated from full length human recombinant clones transfected into SF9 cells.
Assays were performed either using a modification of the “batch” method of W. J. Thompson et al. (Biochem., 1979, 18, 5228) or using a scintillation proximity assay for the direct detection of AMP/GMP using a modification of the protocol described by Amersham pic under product code TRKQ7090/7100. In summary, the effect of PDE inhibitors was investigated by assaying a fixed amount of enzyme in the presence of varying inhibitor concentrations and low substrate, (cGMP or cAMP in a 3:1 ratio unlabelled to [^3H]-labeled at a conc ˜½ Km) such that IC50 ≅Ki. The final assay volume was made up to 102 μl with assay buffer [20 mM Tris-HCl pH 7.4, 5 mM MgCl2, 1 mg/ml bovine serum albumin]. Reactions were initiated with enzyme, incubated for 30-60 min at 30° C. to give <30% substrate turnover and terminated with 50 μl yttrium silicate SPA beads (containing 3 mM of the respective unlabelled cyclic nucleotide for PDEs 3, 9 and 11). Plates were resealed and shaken for 20 min, after which the beads were allowed to settle for 30 min in the dark and then counted on a TopCount plate reader (Packard, Meriden, Conn.). Radioactivity units were converted to % activity of an uninhibited control (100%), plotted against inhibitor concentration and inhibitor IC50 values obtained using the ‘Fit Curve’ Microsoft Excel extension or inhouse equivalent.

[2] = bounds for groups of Examples, read-out: IC50 values for the PDE5 enzyme
[3] = in vitro cGMP PDE5 inhibitory activity, Table 1, read-out: IC50

CCc1nn(C[C@@H]2CCCN2C)c2c(=O)[nH]c(-c3cc(S(C)(=O)=O)ccc3OCC(C)C)nc12 [Example 13, 3-Ethyl-5-[2-isobutoxy-5-(methylsulfonyl)phenyl]-1-{[(2S)-1-methylpyrrolidinyl]methyl}-1,6-dihydro-7H-pyrazolo[4,3-d]pyrimidin-7-one]
IC50 [1, 2]: < 10 nM
IC50 [1, 3]: 6.3 nM
melting point: 190 to 194 °C

CCc1nn(Cc2ccccn2)c2c(=O)[nH]c(-c3cc(S(C)(=O)=O)ccc3OCC(C)C)nc12 [Example 3, 3-Ethyl-5-[2-isobutoxy-5-(methylsulfonyl)phenyl]-1-(2-pyridinylmethyl)-1,6-dihydro-7H-pyrazolo[4,3-d]pyrimidin-7-one]
IC50 [1, 2]: < 10 nM
IC50 [1, 3]: 1.5 nM
melting point: 223 to 225 °C

CCCOc1ncc(S(C)(=O)=O)cc1-c1nc2c(CC)nn(C[C@@H]3CCCN3C)c2c(=O)[nH]1 [Example 23, 3-Ethyl-1-{[(2S)-1-methylpyrrolidinyl]methyl}-5-[5-(methylsulfonyl)-2-propoxy-3-pyridinyl]-1,6-dihydro-7H-pyrazolo[4,3-d]pyrimidin-7-one]
melting point: 182 to 183 °C

CCCOc1ccc(S(C)(=O)=O)cc1-c1nc2c(CC)nn(C[C@@H]3CCCCN3C)c2c(=O)[nH]1 [Example 28, 3-Ethyl-1-{[(2S)-1-methylpiperidinyl]methyl}-5-[5-(methylsulfonyl)-2-propoxyphenyl]-1,6-dihydro-7H-pyrazolo[4,3-d]pyrimidin-7-one]
IC50 [1, 2]: < 10 nM
IC50 [1, 3]: 3.6 nM

CCc1n[nH]c2c(=O)[nH]c(-c3cc(S(C)(=O)=O)ccc3OCc3ccccn3)nc12 [Example 6, 3-Ethyl-5-[5-(methylsulfonyl)-2-(2-pyridinylmethoxy)phenyl]-1,6-dihydro-7H-pyrazolo[4,3-d]pyrimidin-7-one]
melting point: 283 to 286 °C

CCc1c2nc(-c3cc(S(C)(=O)=O)ccc3OCC(C)C)[nH]c(=O)c2nn1C1CCN(C)CC1 [Example 21, 3-Ethyl-5-[2-isobutoxy-5-(methylsulfonyl)phenyl]-2-(1-methyl-4-piperidinyl)-2,6-dihydro-7H-pyrazolo[4,3-d]pyrimidin-7-one]
IC50 [1, 3]: 12.5 nM
melting point: 292 to 295 °C

CCc1c2nc(-c3cc(S(C)(=O)=O)ccc3OCC(C)C)[nH]c(=O)c2nn1CCN1CCOCC1 [Example 10, 3-Ethyl-5-[2-isobutoxy-5-(methylsulfonyl)phenyl]-2-[2-(4-morpholinyl)ethyl]-2,6-dihydro-7H-pyrazolo[4,3-d]pyrimidin-7-one]
IC50 [1, 2]: < 10 nM
IC50 [1, 3]: 7.6 nM
melting point: 268 to 273 °C

CCc1c2nc(-c3cc(S(C)(=O)=O)ccc3OCC(C)C)[nH]c(=O)c2nn1C1CCN(C(C)C)CC1 [Example 22, 3-Ethyl-5-[2-isobutoxy-5-(methylsulfonyl)phenyl]-2-(1-isopropyl-4-piperidinyl)-2,6-dihydro-7H-pyrazolo[4,3-d]pyrimidin-7-one]
IC50 [1, 3]: 13.4 nM
melting point: 273 to 275 °C

CCCCOc1ccc(S(C)(=O)=O)cc1-c1nc2c(CC)nn(Cc3ccccn3)c2c(=O)[nH]1 [Example 5, 5-[2-Butoxy-5-(methylsulfonyl)phenyl]-3-ethyl-1-(2-pyridinylmethyl)-1,6-dihydro-7H-pyrazolo[4,3-d]pyrimidin-7-one]
IC50 [1, 2]: < 10 nM
IC50 [1, 3]: 3.5 nM

CCCCOc1ccc(S(C)(=O)=O)cc1-c1nc2c(CC)n(CCN3CCOCC3)nc2c(=O)[nH]1 [Example 8, 5-[2-Butoxy-5-(methylsulfonyl)phenyl]-3-ethyl-2-[2-(4-morpholinyl)ethyl]-2,6-dihydro-7H-pyrazolo[4,3-d]pyrimidin-7-one]
IC50 [1, 2]: < 10 nM
IC50 [1, 3]: 10 nM
melting point: 235 to 238 °C

C=CCc1nc(CC)n2nc(-c3cc(S(C)(=O)=O)ccc3OCCCC)[nH]c(=O)c12 [Example 29]
IC50 [1, 2]: < 10 nM
IC50 [1, 3]: 6.7 nM
melting point: 192 to 194 °C

CCCOc1ccc(S(=O)(=O)CC)cc1-c1nc2c(CC)nn(C[C@@H]3CCCN3C)c2c(=O)[nH]1 [Example 26, 3-Ethyl-5-[5-(ethylsulfonyl)-2-propoxyphenyl]-1-{[(2S)-1-methylpyrrolidinyl]methyl}-1,6-dihydro-7H-pyrazolo[4,3-d]pyrimidin-7-one]
IC50 [1, 3]: 18.3 nM

CCc1nn(C2CN(C(C)C)C2)c2c(=O)[nH]c(-c3cc(S(C)(=O)=O)ccc3OCC(C)C)nc12 [Example 20]
IC50 [1, 3]: 13.7 nM
melting point: 206 to 209 °C

CCc1nn(Cc2cccnn2)c2c(=O)[nH]c(-c3cc(S(C)(=O)=O)ccc3OCC(C)C)nc12 [Example 16, 3-Ethyl-5-[2-isobutoxy-5-(methylsulfonyl)phenyl]-1-(3-pyridazinylmethyl)-1,6-dihydro-7H-pyrazolo[4,3-d]pyrimidin-7-one]
IC50 [1, 2]: < 10 nM
IC50 [1, 3]: 9.8 nM
melting point: 231 to 234 °C

CCc1nn(Cc2ccccn2)c2c(=O)[nH]c(-c3cc(S(C)(=O)=O)ccc3OCCOC)nc12 [Example 4, 3-Ethyl-5-[2-(2-methoxyethoxy)-5-(methylsulfonyl)phenyl]-1-(2-pyridinylmethyl)-1,6-dihydro-7H-pyrazolo[4,3-d]pyrimidin-7-one]
melting point: 166 to 167 °C

CCc1c2nc(-c3cc(S(C)(=O)=O)ccc3OCC(C)C)[nH]c(=O)c2nn1Cc1cccnn1 [Example 15, 3-Ethyl-5-[2-isobutoxy-5-(methylsulfonyl)phenyl]-2-(3-pyridazinylmethyl)-2,6-dihydro-7H-pyrazolo[4,3-d]pyrimidin-7-one]
IC50 [1, 2]: < 10 nM
IC50 [1, 3]: 7.3 nM
melting point: 244 to 247 °C

CCCCOc1ccc(S(C)(=O)=O)cc1-c1nc2c(CC)nn(Cc3ccccn3)c2c(=O)[nH]1 (as salt: potassium) [Example 5, 5-[2-Butoxy-5-(methylsulfonyl)phenyl]-3-ethyl-1-(2-pyridinylmethyl)-1,6-dihydro-7H-pyrazolo[4,3-d]pyrimidin-7-one]
melting point: 189 to 191 °C

CCCOc1ccc(S(C)(=O)=O)cc1-c1nc2c(CC)nn(CCN(C(C)C)C(C)C)c2c(=O)[nH]1 [Example 24, 1-[2-(Diisopropylamino)ethyl]-3-ethyl-5-[5-(methylsulfonyl)-2-propoxyphenyl]-1,6-dihydro-7H-pyrazolo[4,3-d]pyrimidin-7-one]
IC50 [1, 2]: < 10 nM
IC50 [1, 3]: 6.7 nM

CCCOc1ccc(S(C)(=O)=O)cc1-c1nc2c(CC)nn(Cc3ccccn3)c2c(=O)[nH]1 (as salt: potassium) [Example 11, 3-Ethyl-5-[5-(methylsulfonyl)-2-propoxyphenyl]-1-(2-pyridinylmethyl)-1,6-dihydro-7H-pyrazolo[4,3-d]pyrimidin-7-one]
melting point: 209 to 211 °C

CCc1c2nc(-c3cc(S(C)(=O)=O)ccc3OCC(C)C)[nH]c(=O)c2nn1Cc1ccccn1 [Example 17, 3-Ethyl-5-[2-isobutoxy-5-(methylsulfonyl)phenyl]-2-(2-pyridinylmethyl)-2,6-dihydro-7H-pyrazolo[4,3-d]pyrimidin-7-one]
IC50 [1, 2]: < 10 nM
IC50 [1, 3]: 4.8 nM
melting point: 235 to 238 °C

CCCOc1ccc(S(C)(=O)=O)cc1-c1nc2c(CC)n(CCN(C(C)C)C(C)C)nc2c(=O)[nH]1 [Example 25, 2-[2-(diisopropylamino)ethyl]-3-ethyl-5-[5-(methylsulfonyl)-2-propoxyphenyl]-2,6-dihydro-7H-pyrazolo[4,3-d]pyrimidin-7-one]
IC50 [1, 2]: < 10 nM
IC50 [1, 3]: 5.4 nM
